Data: PMC6934184, “Selective DNA-PKcs inhibition extends the therapeutic index of localized radiotherapy and chemotherapy” (The Journal of Clinical Investigation, 2019)

Molecular target: T1, CDK5 (Inactive) (Homo sapiens, UniProt Q00535)
T1 construct: purchased Thermo Fisher Scientific (Life Technologies) SelectScreen
Experiment: SelectScreen LanthaScreen
Type: binding
Conditions: read-out: % displacement
Procedure, shortened: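 SelectScreen broad panel; activity (Z'LYTE, Adapta) plus binding formats. ATP: Km app for CSF1R Z'LYTE; 10 for CAMK1 Adapta. Readout = % per kinase.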

T1 sequence (Q00535 whole entry): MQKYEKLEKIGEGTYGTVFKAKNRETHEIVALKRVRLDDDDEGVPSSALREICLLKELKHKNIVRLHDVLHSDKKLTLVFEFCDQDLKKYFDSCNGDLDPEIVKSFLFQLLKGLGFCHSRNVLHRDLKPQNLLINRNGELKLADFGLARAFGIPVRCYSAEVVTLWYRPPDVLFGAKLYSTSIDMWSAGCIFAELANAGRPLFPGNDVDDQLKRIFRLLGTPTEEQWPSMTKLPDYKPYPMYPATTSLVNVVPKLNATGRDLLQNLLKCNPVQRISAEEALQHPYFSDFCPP

CN(C(=O)CN1CCOCC1)c1ccc2sc3c(-c4cccc5c(=O)cc(N6CC7CCC(C6)O7)oc45)cccc3c2c1 [NU5455]
inhibition at 1 µM: -2.1%
